Patent publication US12157723B2, “Compounds” (CYBIN UK LTD, priority 2019, dated 2024)
Where two headings read alike, the source gives them in different places.

Tests used:
[1] = humans, 0.05 mg/kg to 0.4 mg/kg, bolus injections or infusions; cited from earlier work
[2] = without coadministration of a monoamine oxidase inhibitor; cited from earlier work
[3] = cited from earlier work; for participants with psychiatric diagnoses whose symptoms improved following use: uncontrolled setting, self-report
[4] = Solubility of API in water (vessel cleaning note); assay type: physicochemical

CN(C)CCc1c[nH]c2ccccc12 [DMT (SPL026), N,N-dimethyltryptamine]
tolerability [1]: well-tolerated

COc1ccc2[nH]cc(CCN(C)C)c2c1 [Mixture 5-MeO-DMT, 5-methoxy-N,N-dimethyltryptamine]
oral bioavailability [2]: not orally bioavailable | individuals reporting improvements in their conditions following use ([3]; alcoholism or hazardous drinking, n=75 out of 113): 66% | participants with psychiatric diagnoses whose symptoms improved following use ([3]; anxiety): 69% | participants with psychiatric diagnoses whose symptoms improved following use ([3]; depression): 77% | participants with psychiatric diagnoses whose symptoms improved following use ([3]; post-traumatic stress disorder): 79%

CN(C)CCc1c[nH]c2ccccc12.O=C(O)/C=C/C(=O)O [API, N,N-DMT fumarate]
solubility in water [4]: API highly soluble
